Measurements: PMC3556473, “Absorption, metabolism and excretion of [^14C]pomalidomide in humans following oral administration” (Cancer Chemotherapy and Pharmacology, 2012)
Values joined by “and” are separate entries in the source; they are usually repeats but may differ in a detail not shown here. Equal entries are not always repeated.

Key:
T cell IL-2 production = test: Enhancement of primary human T cell IL-2 production (anti-CD3 stimulated, 2-day culture); format: cell-based; conditions: 48 h, anti-CD3 stimulated primary human T cells
Procedure: (§1) Metabolites and hydrolysis products of pomalidomide were tested for pharmacological activity in the following three assay systems: (1) inhibition of MM cell proliferation, (2) enhancement of primary human T cell IL-2 production and (3) inhibition of TNF-α production by lipopolysaccharide (LPS)-stimulated human peripheral blood mononuclear cells (PBMC). For all three assay types, compounds were dissolved in 100 % dimethyl sulfoxide (DMSO) and diluted into complete cell culture medium, consisting of Roswell Park Memorial Institute (RPMI)-1640 plus penicillin, streptomycin and L-glutamine (Mediatech, Manassas, VA). The MM cell proliferation cell culture medium contained 10 % fetal bovine serum, while the primary human cell cultures contained 10 % human AB serum (Invitrogen, Brown Deer, WI). The final DMSO concentration in the cell culture media was 0.25 %.
(§2) The human MM cell line OPM-2 was obtained from DSMZ (Braunschweig, Germany), and human MM cell lines U266 B1 and NCI-H929 were obtained from ATCC (Manassas, VA). Inhibition of MM cell proliferation was assessed by the [^3H]-thymidine incorporation assay in a 3-day culture in the presence of compounds in complete medium, as previously described. Primary human T cells were isolated from PBMC by negative selection using the RosetteSep T Cell Enrichment Cocktail (STEMCELL Technologies, Tukwila, WA) according to the manufacturer’s procedures. Costimulation of T cell IL-2 production was measured in a 2-day culture of primary human T cells isolated from healthy donors stimulated with anti-CD3 antibody in the presence of compounds, as previously described. Inhibition of TNF-α production by LPS-stimulated human PBMC was measured in a 1-day culture in the presence of compound, as previously described.

[1] = Plasma pharmacokinetics of pomalidomide and circulating metabolites by radiochromatography (metabolite profiling); format: in vivo, human; parameters: AUC0–24 / AUC0−∞: concentration or dose not given beside the values; conditions: for Plasma (% AUC relative to TRA): AUC0–24 (unchanged drug or metabolite)/AUC0–24 (TRA) * 100 %; for Tmax / half-life: human, oral, 2 mg; for Tmax / half-life / AUC0–24 / AUC0−∞ / C max: plasma, radiochromatography; for Tmax: median and range; for half-life: male, read-out: t ½ (converted); for half-life / AUC0–24 / AUC0−∞ / C max: geometric mean (%CV); for AUC/AUCTRA: plasma exposure relative to total radioactivity
Procedure: Individual plasma samples collected from all subjects at 1, 2.5, 4, 6, 10, 12 and 24 h post-dose were analyzed for metabolite profiling. Samples were extracted with acetonitrile, the supernatant was removed, and the pellet was washed with 0.1 % formic acid in water and extracted again with acetonitrile. The combined supernatants were adjusted to 15 or 25 mL by adding acetonitrile then evaporated to dryness under a stream of nitrogen. The residues were re-suspended in 0.1 % formic acid in water, assayed for extraction recovery and analyzed for metabolite profiling. A control plasma sample spiked with [^14C]pomalidomide was extracted in a similar manner to determine the extraction efficiency and stability of [^14C]pomalidomide.
(§3) HPLC analysis for metabolite profiling (HPLC Method 1) was performed using a Waters 2695 Alliance Separation Module (Waters Corp., Milford, MA) with the autosampler set to 4 °C. [^14C]Pomalidomide and metabolites were separated using an ACE C18 column (150 × 4.6 mm, 3 μm; Advanced Chromatography Technologies, Aberdeen, Scotland) equipped with an ACE C18 guard column (10 × 3 mm, 3 μm). The mobile phases used were 25 mM ammonium acetate in water: pH 5.5 with formic acid (mobile phase A) and methanol (mobile phase B). The column temperature was 30 °C, and the flow rate was 0.7 mL/min. The linear gradient was delivered as follows: 0–2 min 100 % A; 2–38 min to 64 % A; 38–44 min to 0 % A; 44–48 min hold at 0 % A; return to initial conditions over 2 min.
(§4) Radioactivity profiles for plasma and excreta were determined by collecting the column eluate into 96-well Deepwell LumaPlates™ at a rate of 0.25 min/fraction. The plates were dried and the radioactivity in each well determined using a PerkinElmer TopCount® NXT™ Microplate Scintillation Counter. HPLC radiochromatograms were reconstructed using LC-ARC data handling software.
For pomalidomide and metabolite concentrations in plasma based on metabolite profiling data, pharmacokinetic data were generated by non-compartmental analysis of plasma versus time profiles using WinNonlin (version 4.1, Enterprise Edition).

U266 MM cell = test: Inhibition of MM cell proliferation ([3H]-thymidine incorporation, 3-day culture); format: cell-based; conditions: Homo sapiens, U-266
Procedure: as §1, §2

H929 MM cell = test: as above; format: cell-based; conditions: Homo sapiens, NCI-H929
Procedure: as §1, §2

OPM-2 MM cell = test: as above; format: cell-based; conditions: Homo sapiens
Procedure: as §1, §2

[2] = Metabolite profiling of urine and feces (% of dose excreted); format: in vivo, human; conditions: radiochromatography; for % of dose excreted, Urine: pooled urine 0–72 h
Procedure: For each subject, urine samples were pooled using an equal percentage by volume of the 0–6, 6–12, 12–24, 24–48 and 48–72 h samples. Pools of the 0–6, 6–12, 12–24, 24–48 and 48-72 h collections were also prepared across subjects and analyzed for metabolite profiling. Samples were mixed and centrifuged prior to the supernatants being transferred to fresh tubes for metabolite profiling analysis.
For each subject, fecal homogenates for metabolite profiling were pooled using an equal percentage by weight of the 0–24, 24–48, 48–72 and 72–96 h samples. Pools of the 0–24, 24-48, 48–72 and 72–96 h collections were also prepared across subjects and analyzed for metabolite profiling. An aliquot of each pool was extracted with acetonitrile; samples were mixed and centrifuged. The supernatant was removed and the pellets re-suspended with 0.1 % formic acid and extracted with acetonitrile. The combined supernatants were evaporated to dryness under a stream of nitrogen and the residue re-suspended in methanol:0.1 % formic acid in water (1:1). Samples were assayed for extraction recovery prior to metabolite profiling. A control fecal homogenate spiked with [^14C]pomalidomide was extracted in a similar manner to determine the extraction efficiency and stability of [^14C]pomalidomide.
as §3, §4

[3] = test system: recombinant human CYP (rCYP) enzymes; test: Incubations of [14C]pomalidomide with 10 recombinant human CYP enzymes, radiochromatography / LC–MS/MS; format: in vitro ADME
Procedure: The CYP enzymes responsible for the formation of the hydroxy pomalidomide metabolites were investigated using 10 recombinant human CYP (rCYP) enzymes (CYP1A2, CYP2A6, CYP2B6, CYP2C8, CYP2C9, CYP2C19, CYP2D6, CYP2E1, CYP3A4 and CYP3A5) at 100 pmol/mL. Incubations were prepared using [^14C]pomalidomide (1 μM) in 0.1 M potassium phosphate buffer (pH 7.4) with 4 mM MgCl2, pre-incubated for 5 min at 37 °C. Reactions were initiated by the addition of 1 mM NADPH and continued for 30 or 60 min. Reactions were quenched with two volumes of ice-cold 0.1 % formic acid in acetonitrile containing [^13C5]pomalidomide as internal standard. The samples were mixed and centrifuged, and a subsample of the supernatant evaporated to dryness. The resulting pellet was reconstituted in 0.1 % formic acid in water and acetonitrile (4:1, v/v) and analyzed using HPLC with radiochromatography and/or LC–MS/MS. The rate of formation of the notable human metabolite M17 was calculated and scaled to human in vivo situation using relative abundance method.

PBMC TNF-α production = test: Inhibition of TNF-α production by LPS-stimulated human PBMC (1-day culture); format: cell-based; conditions: 24 h
Procedure: as §1, §2

Structure (SMILES) | EC50 (T cell IL-2 production) [µM] | Plasma (% AUC relative to TRA) [1] [%] | Tmax [1] [h] | half-life [1] [h] | AUC/AUCTRA [1] [%] | AUC0–24 [1] | AUC0−∞ [1] | C max [1] | IC50 (U266 MM cell) [µM] | IC50 (H929 MM cell) [µM] | IC50 (OPM-2 MM cell) [µM] | % of dose excreted, Feces ([2]; pooled feces 0–96 h) [%] | % of dose excreted, Urine [2] | level of metabolite detected by radiochromatography in rCYP incubations ([3]; all rCYP incubations of [14C]pomalidomide 1 μM) | level of metabolite detected by radiochromatography in the absence of enzyme ([3]; incubations of [14C]pomalidomide without enzyme) [%] | IC50 (PBMC TNF-α production) [µM] | formation of metabolite in rCYP incubations (LC–MS/MS) ([3]; any of the samples analyzed)
NC(=O)CCC(C(=O)O)N1C(=O)c2cccc(N)c2C1=O (stereo not drawn) [Metabolite M11] | > 10 | 6.3 | 2.5 | 10 | 6.34 | 12.3 (43.6) ngEq*h/mL | 15.9 (59.7) ngEq*h/mL | 0.965 (33.3) ngEq/mL | > 1 | > 1 | > 1 | 0.3 | 23% and 23.3% | 2.5–5.9% | 5.5 | > 10 | 
Nc1ccc(O)c2c1C(=O)N(C1CCC(=O)NC1=O)C2=O (stereo not drawn) [Metabolite M16, 7-hydroxy pomalidomide] | > 10 | 6.1 | 1 | 14.2 | 6.13 | 11.9 (16.8) ngEq*h/mL | 17.6 (29.9) ngEq*h/mL | 0.907 (27.4) ngEq/mL | > 1 | > 1 | > 1 |  | 7.0% |  |  | > 10 | not observed
